The conditions of test [1]: activity of the polysaccharide as cited from the reference in Table 15; cited from earlier work.
Test [2] has as its system anti-Sialyl Lewis X IgM from mouse. Nature of the test: Anti-Sialyl Lewis X antibody binding assay. As to conditions: Library 1 strip after the ERs sequence, anti-mouse IgM-biotin, avidin-peroxidase, O.D. 450 nm, versus control strip without nucleotide sugar. The protocol: Anti-Sialyl Lewis X: 100 μl of 10 μg/ml anti-Sialyl Lewis X IgM from mouse (Calbiochem 565953) was added to the plates and incubated for 1 hour at 25° C. in TBS containing 1% BSA. The wells were washed 3 times with 200 μl TBST with a last wash consisting of a 15 minutes soak, following which, a solution of TBS containing 1% BSA and 100 μl of 5 μg/ml goat anti-mouse IgM conjugated to biotin (SIGMA b-9265) was added to the plates and incubated for one hour at 25° C. The wells were washed 3 times with […] with a last wash consisting of a 15 minutes soak, followed by incubation with […] containing 1% BSA and 5 μg/ml avidin conjugated to peroxidase (SIGMA A-3151, 40 peroxidase units per mg protein) for 1 hour at 25° C. The wells were washed three times with 200 μl TBST with a last wash consisting of a 15 minutes soak. 100 μl of fresh peroxidase substrate solution was added, and an hour later the O.D. of the solution (at 450 nm) was determined.
When the above described binding assays were performed on covalently coupled monosaccharide acceptors, such as the case with Covalink NH plates, the TBS incubation solution was replaced with TBST and the wash steps were performed using high ionic strength buffer instead of TBST.

For another test, the system named is TGP lectin. Nature of the test: TGP lectin binding assay. Also on record: species or system Tereagonolobus purpureas. As to conditions: Library 1 strip after the ERs sequence; peroxidase-conjugated lectin, O.D. 450 nm; versus control strip without nucleotide sugar. The protocol: TGP: 100 μl of 20 μg/ml TGP lectin conjugated to peroxidase (SIGMA L-1508, 10 peroxidase units per mg protein) was added to the plates and incubated for one hour at 25° C. in TBS containing 1% BSA and 10 millimolar of MnCl2 and of CaCl2. The wells were washed three times with 200 μl TBST with a last wash consisting of a 15 minutes soak. 100 μl of fresh peroxidase substrate solution was added, and an hour later the O.D. of the solution (at 450 nm) was determined. When the above described binding assays were performed on covalently coupled monosaccharide acceptors, such as the case with Covalink NH plates, the TBS incubation solution was replaced with TBST and the wash steps were performed using high ionic strength buffer instead of TBST.

For Fucoidan, in test [1], the Activity entry is listed as “anti coagulant”.

Turning to “NeuAC α 2,3 Gal β 1,4 (Fuc α 1,3)GlcNAc [EM 6]”, the “IgM Anti-Sialyl Lewis X binding” value in test [2] is “increase”.

As to Gal β 1,4 (Fuc α 1,3)GlcNAc-S [EM 5], the TGP binding entry with TGP lectin is on record as “increase”.

The record behind these values is patent publication US6972172B2, “Combinatorial complex carbohydrate libraries and methods for the manufacture and uses thereof” (Glycominds Ltd., priority 2000, dated 2005).
